Assay results from article PMC8041284, “Tunable Methacrylamides for Covalent Ligand Directed Release Chemistry” (Journal of the American Chemical Society, 2021).

What follows are compounds tested against BTK (Homo sapiens, UniProt Q06187) (assay: biochemical). Conditions: read-out: BTK inhibition (%).
BTK, sequence (Q06187 402-655 limits assumed): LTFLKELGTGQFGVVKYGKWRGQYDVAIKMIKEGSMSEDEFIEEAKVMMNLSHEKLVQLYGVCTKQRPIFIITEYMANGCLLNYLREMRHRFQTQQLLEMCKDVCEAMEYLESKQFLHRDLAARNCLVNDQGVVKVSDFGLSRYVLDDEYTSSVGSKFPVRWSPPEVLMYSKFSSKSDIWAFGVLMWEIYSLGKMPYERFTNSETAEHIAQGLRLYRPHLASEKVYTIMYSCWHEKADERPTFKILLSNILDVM

Structure (SMILES) | inhibition at 10 µM [%]
O=C(NCC1CCOCC1)c1cnc(Nc2ccc(Cl)cc2Cl)nc1C(F)(F)F [PCM-0095345] | -9.3
CC1(C)CC(O)CC(C)(C)N1[O] [PCM-0095391] | 10.3

Same assay, conditions: read-out: BTK inhibition (%), 0.75 uM BTK, […] probe 3l, 15 min preincubation

Structure (SMILES) | inhibition at 10 µM [%]
CC(C)(O)CC[C@@H](O)[C@](C)(O)[C@H]1CC[C@@]2(O)C3=CC(=O)[C@@H]4C[C@@H](O)[C@@H](O)C[C@]4(C)[C@H]3CC[C@]12C [PCM-0095305] | 6.2
C1=C2CCCN[C@H]2[C@@H]2C[C@H]1[C@H]1CCCCN1C2 [PCM-0095306] | -2.6
COc1ccc([C@H]2CNC(=O)C2)cc1OC1CCCC1 [PCM-0095307] | 7
Cc1c(-c2ccc(O)cc2)n(Cc2ccc(OCCN3CCCCCC3)cc2)c2ccc(O)cc12 [PCM-0095308] | 84
N[C@@H](CSCCCO)C(=O)O [PCM-0095309] | 17.9
O=C(Nc1c(Cl)cncc1Cl)c1ccc(OC(F)F)c(OCC2CC2)c1 [PCM-0095310] | 3.1
Clc1ccc(C(Cn2ccnc2)OCc2ccc(Sc3ccccc3)cc2)c(Cl)c1 (stereo not drawn) [PCM-0095311] | 100
Cc1cc(C(=O)NOCCO)c(Nc2ccc(I)cc2F)n(C)c1=O [PCM-0095312] | 2.1
CC(C)c1noc(N2CCC(COc3ccc(-c4ccc(S(C)(=O)=O)cc4)nc3)CC2)n1 [PCM-0095313] | -14
CC(/C=C1\SC(=S)N(CC(=O)O)C1=O)=C\c1ccccc1 [PCM-0095314] | -47.7
CCOc1cc2ncc(C#N)c(Nc3ccc(OCc4ccccn4)c(Cl)c3)c2cc1NC(=O)/C=C/CN(C)C [PCM-0095315] | 80
Cc1c(C(=O)Nc2ccc(N3C[C@@H](C)O[C@@H](C)C3)nc2)cccc1-c1ccc(OC(F)(F)F)cc1 [PCM-0095316] | 6.2
C=C[C@@]1(C)CC(=O)[C@]2(O)[C@@]3(C)[C@@H](O)CCC(C)(C)[C@@H]3[C@H](O)[C@H](OC(C)=O)[C@@]2(C)O1 [PCM-0095317] | -17.1
Oc1ccc([C@H]2COc3cc(O)ccc3C2)cc1 [PCM-0095319] | -6.2
CN1[C@@H]2CC(O)C[C@H]1[C@@H]1O[C@@H]12 (stereo partly drawn) [PCM-0095322] | -2.3
O=C(O)CCC1CCC(c2cc(F)ccc2F)(S(=O)(=O)c2ccc(Cl)cc2)CC1 (stereo not drawn) [PCM-0095325] | -15.2
CNC(=O)Nc1ccc(-c2nc(N3CC4CCC(C3)O4)c3cnn(C4CCC5(CC4)OCCO5)c3n2)cc1 [PCM-0095327] | 15.9
Cc1ccc(O)c([C@H](CCN(C(C)C)C(C)C)c2ccccc2)c1 [PCM-0095328] | 1.6

Structure (SMILES) | inhibition at 10 µM [%]
CCC(C)(Oc1ccc(C2(c3ccc(OC(C)(CC)C(=O)O)cc3)CCCCC2)cc1)C(=O)O (stereo not drawn) [PCM-0095329] | 15.6
O=C(Nc1cccnc1)N1CCC(Cc2cccc(Oc3ccc(C(F)(F)F)cn3)c2)CC1 [PCM-0095330] | -4.8
Cc1[nH]nc2ccc(-c3cncc(OC[C@@H](N)Cc4ccccc4)c3)cc12 [PCM-0095333] | -17.2
O=C(O)C1(Cc2cccc(Nc3nccs3)n2)CCC(Oc2cccc(Cl)c2F)CC1 (stereo not drawn) [PCM-0095334] | 102
O=C(c1ccc(Nc2nccc(-c3cc4ccccc4s3)n2)cc1)N1CCC(N2CCCC2)CC1 [PCM-0095335] | 86.2
CCC(CC)CC1(C(=O)Nc2ccccc2SC(=O)C(C)C)CCCCC1 [PCM-0095336] | 6.2
O=C(Nc1ccccc1Br)N[C@@H]1CCN(c2ccc(C(F)(F)F)cn2)C1 [PCM-0095337] | -17.1
CN(C[C@@H]1COCCO1)S(=O)(=O)Nc1ccc2ccc3ncc(-c4cnn(C)c4)cc3c(=O)c2c1 [PCM-0095338] | 33.1
Cc1ccc(Sc2cncc3sc(C(N)=O)cc23)cc1 [PCM-0095339] | -3.9
O=C(O)CCCCC(CCSCc1ccccc1)SCc1ccccc1 (stereo not drawn) [PCM-0095341] | -39.7
Cn1cc(/C=C2\C(=O)Nc3cccnc32)c2ccccc21 [PCM-0095342] | 22.8
Cc1cnc(-c2cc(N3CCN(C(=O)CCS(C)(=O)=O)CC3)ncc2Cl)c(C)c1 [PCM-0095343] | 7.8
COc1cc(NC(=O)c2ccccn2)ccc1Cl [PCM-0095344] | 15.6
O=S(=O)(c1ccccc1)c1cnc2c(N3CCNCC3)cccc2c1 [PCM-0095346] | 3.1
CN(C)c1ccc(C(=O)NCCCCCCC(=O)NO)cc1 [PCM-0095347] | 4.7
OCc1ccc(-c2ccc(-c3ccc(CO)s3)o2)s1 [PCM-0095348] | 1.6
Cc1cc(F)c(Nc2ncnc3cc(OCc4ccccc4)ccc23)cc1O [PCM-0095349] | 46.9
O=c1[nH]c2ccc(Cl)cc2c(N[C@@H]2CN3CCC2CC3)c1-c1nc2ccccc2[nH]1 [PCM-0095378] | 0

More lines, now with the values ahead:

inhibition at 10 µM [%] | Structure (SMILES)
-10.3 | CC(=O)Nc1cccc(-n2c(=O)n(C3CC3)c(=O)c3c(Nc4ccc(I)cc4F)n(C)c(=O)c(C)c32)c1 [PCM-0095350]
22.6 | O=C(Nc1ccccc1)Nc1ccc(-c2ccc(C(=O)[C@@H]3CCC[C@H]3C(=O)O)cc2)cc1 [PCM-0095351]
37.4 | OC(CN1CCN(c2cccc(Cl)c2)CC1)C(c1ccccc1)c1ccccc1 (stereo not drawn) [PCM-0095352]
-18.7 | CC(=O)O[C@]1(C(C)=O)CC[C@H]2[C@@H]3C[C@H](C)C4=CC(=O)CC[C@]4(C)[C@H]3CC[C@@]21C [PCM-0095356]
9.7 | O=C1NC(=O)/C(=C/c2ccc3c(c2)OC(F)(F)O3)S1 [PCM-0095357]
4.3 | NC[C@@H]1O[C@H](O[C@H]2[C@@H](O)[C@H](O[C@@H]3[C@@H](O)[C@H](N)C[C@H](N)[C@H]3O[C@H]3O[C@H](CN)[C@@H](O)[C@H](O)[C@H]3N)O[C@@H]2CO)[C@H](N)[C@@H](O)[C@@H]1O [PCM-0095358]
11 | O=C1NC(=O)/C(=C\c2ccc(-c3ccc(F)cc3)o2)S1 [PCM-0095359]
52.4 | CC(C)c1onc(-c2c(Cl)cccc2Cl)c1COc1ccc(/C=C/c2cccc(C(=O)O)c2)c(Cl)c1 [PCM-0095360]
31 | COc1cc2ncnc(Nc3ccc(Cl)cc3F)c2cc1OC [PCM-0095361]
-2.8 | CNC(=O)c1cccc(-c2ccc3c(N4CCOC[C@@H]4C)nc(N4CCOC[C@@H]4C)nc3n2)c1 [PCM-0095362]
-37.9 | NC(=O)c1cccc(-c2cc(Nc3ccc(OC(F)(F)F)cc3)ncn2)c1 [PCM-0095363]
73.8 | CC(C)(O)CC(=O)NCCn1ccc2ncnc(Nc3ccc(Oc4cccc(C(F)(F)F)c4)c(Cl)c3)c21 [PCM-0095364]
56.8 | COc1cc(NC(=O)c2ccc(-c3ccc(Cl)cc3)o2)cc(OC)c1 [PCM-0095366]
-12.5 | Cc1ccc(-n2sc(=O)n(Cc3ccc(F)cc3)c2=O)cc1 [PCM-0095367]
11 | CCN(C(=O)c1c(O)c2c(Cl)cccc2n(C)c1=O)c1ccccc1 [PCM-0095368]
15.9 | N#CC[C@@H](C1CCCC1)n1cc(-c2ncnc3[nH]ccc23)cn1 [PCM-0095369]
-24.7 | CNC(=O)c1ccc(-c2cnc3ncc(Cc4ccc5ncccc5c4)n3n2)cc1F [PCM-0095370]
111 | Cn1cc(-c2[nH]c3cc(NC(=O)[C@H](N)C4CCCCC4)cc4c3c2C=NNC4=O)cn1 [PCM-0095372]
-25.7 | CCn1c(=O)c2c(nc(/C=C/c3ccc(OC)c(OC)c3)n2C)n(CC)c1=O [PCM-0095373]
-2.1 | CN1CCN(C(=O)c2cc3cc(Cl)ccc3[nH]2)CC1 [PCM-0095374]

inhibition at 10 µM [%] | Structure (SMILES)
57.9 | CN1CCN(c2nc(C3=C(c4c[nH]c5ccccc45)C(=O)NC3=O)c3ccccc3n2)CC1 [PCM-0095375]
20.2 | COC(=O)CCSCc1ccc(-c2onc(C)c2NC(=O)OC(C)c2ccccc2Cl)cc1 (stereo not drawn) [PCM-0095376]
2.3 | CCc1c(O)cc(O)c(C(=O)c2ccc(OCCN3CCOCC3)c(OC)c2)c1CC(=O)N(CCOC)CCOC [PCM-0095381]
78.6 | Fc1cc(-c2cccc3ncc(-c4cnn(C5CCNCC5)c4)nc23)cc(F)c1CN1CCOCC1 [PCM-0095382]
-9.7 | COc1ccc(F)c(F)c1C(=O)c1cnc(NC2CCN(S(C)(=O)=O)CC2)nc1N [PCM-0095383]
-27.6 | c1cncc(CN2CCC(n3ncc4c(N5CCOCC5)nc(-c5ccc6[nH]ccc6c5)nc43)CC2)c1 [PCM-0095384]
-13.2 | O=C(c1ccc(F)cc1)N1CCC[C@H](c2nc(-c3ccc(F)cc3)no2)C1 [PCM-0095385]
82.8 | Cc1cnc(Nc2ccc(N3CCN(C)CC3)cc2)nc1Nc1cccc(S(=O)(=O)NC(C)(C)C)c1 [PCM-0095386]
3.4 | CC(C)OC(=O)C1=CN(C(=O)c2ccc(F)c(F)c2)CC(C)(C)c2c1[nH]c1ccccc21 [PCM-0095387]
-5.4 | CCCCOc1ccc(C(=O)Nc2ccc(F)cc2F)cc1 [PCM-0095388]
12.4 | C[C@H](NC(=O)/C(C#N)=C/c1cccc(Br)n1)c1ccccc1 [PCM-0095390]
32.7 | NC(=O)N1CCC(CC(=O)N2CCC([C@H]3c4ncc(Br)cc4CCc4cc(Cl)cc(Br)c43)CC2)CC1 [PCM-0095392]
24.8 | COc1ccc2c(c1)c(C1=C(c3c[nH]c4ccccc34)C(=O)NC1=O)cn2CCCN(C)C [PCM-0095393]
-4.8 | c1ccc(NCc2ccc(CNc3ccccn3)cc2)nc1 [PCM-0095395]
58.6 | COc1cc(CCc2cc(NC(=O)c3ccc(N4C[C@@H](C)N[C@@H](C)C4)cc3)n[nH]2)cc(OC)c1 [PCM-0095396]
7 | Cc1cc(C)c(Nc2ccnc(Nc3ccc(C#N)cc3)n2)c(C)c1 [PCM-0095398]
0 | C[C@]12CC[C@H](O)CC1=CC[C@@H]1[C@@H]2CC[C@]2(C)C(n3cnc4ccccc43)=CC[C@@H]12 [PCM-0095399]
9 | CC(NC(=O)c1ccccc1N=Cc1c(O)ccc2ccccc12)c1ccccc1 (stereo not drawn) [PCM-0095400]
19.5 | CCCC(=O)Nc1cccc(NC(=O)c2ccccc2Br)c1 [PCM-0095401]
14.5 | c1ccc(-c2[nH]ncc2-c2ccnc3ccccc23)nc1 [PCM-0095402]
